Test results reported in patent US9114133B2, “Method of improving diastolic dysfunction” (U.S. DEPT. OF VETERANS AFFAIRS, priority 2006, dated 2015).
Marks after values point to notes of the source that are not given here.

What was measured:
isolated single myocytes = assay: Residual sarcomere length of isolated myocytes with BDM; format: cell-based, mouse; details: BDM 10 mM
Method: 2,3-Butanedione monoxime (BDM), a cross-bridge inhibitor, was used to measure residual sarcomere length. BDM inhibits the Ca^2+ regulated attachment of the cross-bridges and force-generation of the attached cross-bridges (Reference 16). Isolated single myocytes were loaded on an chamber and perfused with BDM (10 mM) in Tyrode's solution at 37° C. Sarcomere length was again measured while the myocytes were field-stimulated as described above.

[1] = test system: isolated ventricular myocytes; assay: Isolated myocyte contraction and relaxation parameters (IonOptix); format: cell-based, mouse; details: 1.0 Hz, 10 V, external Ca2+ 1.2 mmol/L
[2] = test system: DOCA-salt mouse model (diastolic dysfunction) and sham mice; assay: Transthoracic echocardiography, in vivo BH4 treatment in DOCA-salt mice; details: BH4 diet 5 mg BH4/day day 11-18, mean ± SEM
Method: Previously, I have shown that the DOCA-salt mouse model leads to mild hypertension, NOS uncoupling, myocardial oxidative stress, and diastolic dysfunction (Reference 10). A gradual and mild elevation in blood pressure was induced by unilateral nephrectomy, subcutaneous implantation of a controlled release deoxycorticosterone acetate (DOCA) pellet (0.7 mg/d; Innovative Research of America, Sarasota, Fla.), and substituting drinking water with 1.05% saline. Control animals underwent a sham operation, had placebo pellet implantation, and received water without salt.
Mice were divided into two groups which received a control diet (sham N=7; DOCA-salt N=10) and two groups which received a BH4 supplemental diet of 5 mg BH4/day (Research Diets Inc, New Brunswick, N.J.; sham+BH4 N=8; DOCA-salt+BH4 N=8). The supplemental diet began on day 11 after surgery, and continued until day 18, when the mice were analyzed and sacrificed.
Mitral pulse wave Doppler flow and tissue Doppler imaging (TDI) were performed using the Vevo 770 high-resolution in vivo imaging system (Visual Sonics, Toronto, Canada) (Reference 10). Mice were anesthetized with 1-1.5% isoflurane until a heart rate of around 350-390 beats/min was achieved because measures of diastolic function are sensitive to heart rate and loading conditions. M-mode images in the parasternal long axis and the left ventricle (LV) short-axis views at the mid-papillary level were taken. Measurements were averaged from five consecutive beats during expiration. The images for each mouse were recorded for at least 5 s (30-40 cardiac cycles) from which three to five representative cycles with the highest quality imaging were selected. Percent fractional shortening (% FS) was calculated as 100×(LVEDd)−(LVESd)/(LVEDd) and percent LV ejection fraction (% EF) was calculated as 100×[(7/2.4+LVEDd)×LEDd^3]−[(7/2.4+LVESd)×LVESd^3]/[(7/2.4+LVEDd)×LEDd^3]. Doppler measurements were made at the tips of the mitral leaflets for diastolic filling profiles in the apical four-chamber view. Mitral inflow velocities, peak early (E) and late (A) were measured by conventional pulsed-wave Doppler. TDI was used to determine the mitral annulus longitudinal velocities (Sm, E′, and A′) (Reference 10). Baseline images before treatment were acquired to confirm diastolic dysfunction in DOCA-salt mice. Subsequently, the mice were fed with BH4, followed by echocardiography at day 18.

[3] = test system: MnSOD deficient cardiomyocytes; assay: Contraction and relaxation of cardiomyocytes from heterozygous MnSOD knockout mice (IonOptix); format: cell-based, mouse; details: BH4 treatment
Method: Echocardiography was used to determine DD in heterozygous MnSOD knockout mice. The mitral annulus longitudinal velocities (E′, and A′) were determined by pulsed-wave tissue Doppler from the apical four-chamber view. Mitochondrial ROS were measured by confocal microscopy and flow cytometry from isolated cardiomyocytes using MitoSOX Red. NO was measured by DAF-FM and by the Griess reaction. Contraction and relaxation impairment were assessed by lonOptix System.

[4] = myocytes from DOCA-salt + BH4 mice

CC(=O)C(C)=NO [BDM, 2,3-Butanedione monoxime]
Residual sarcomere length (isolated single myocytes; myocytes after BH4 treatment): no effect | Residual sarcomere length (isolated single myocytes; myocytes of sham and DOCA-salt groups): increased

C[C@H](O)[C@H](O)[C@H]1CNc2nc(N)[nH]c(=O)c2N1 [BH4, tetrahydrobiopterin]
Diastolic SL [1, 4]: 1.77±0.01 μm | Relengthening velocity [1, 4]: 2.39 ± 0.18 μm/s | Sarcomere shortening [1, 4]: 9.48 ± 0.49% | Shortening velocity [1, 4]: −2.42 ± 0.14 μm/s | Systolic SL [1, 4]: 1.60 ± 0.01 μm | Time to 50% relengthening [1, 4]: 240.3 ± 7.5 ms | Time to 50% shortening [1, 4]: 47.5 ± 0.7 ms | Time to 90% relengthening [1, 4]: 300.0 ± 13.4 ms | Time to 90% shortening [1, 4]: 93.5 ± 1.8 ms | Time to peak shortening [1, 4]: 146.2 ± 0.3 ms | Diastolic SL ([1]; myocytes from sham + BH4 mice): 1.80 ± 0.01#†& μm | Relaxation constant, τ ([1]; myocytes from sham + BH4 mice): 0.07 ± 0.00& | Relengthening velocity ([1]; myocytes from sham + BH4 mice): 2.75 ± 0.18#†& μm/s | Sarcomere shortening ([1]; myocytes from sham + BH4 mice): 10.64 ± 0.61& % | Shortening velocity ([1]; myocytes from sham + BH4 mice): −2.90 ± 0.16#†& μm/s | Systolic SL ([1]; myocytes from sham + BH4 mice): 1.61 ± 0.01& μm | Time to 50% relengthening ([1]; myocytes from sham + BH4 mice): 204.7 ± 6.0&# ms | Time to 50% shortening ([1]; myocytes from sham + BH4 mice): 45.6 ± 0.8 ms | Time to 90% relengthening ([1]; myocytes from sham + BH4 mice): 258.7 ± 11.7&# ms | Time to 90% shortening ([1]; myocytes from sham + BH4 mice): 87.3 ± 1.8&# ms | Time to peak shortening ([1]; myocytes from sham + BH4 mice): 133.6 ± 0.3& ms | A′ (tissue Doppler) ([2]; DOCA-salt mice): 15.2 ± 1.0 mm/s | EF (ejection fraction) ([2]; DOCA-salt mice): 54.5 ± 5.0% | E′ (tissue Doppler) ([2]; DOCA-salt mice): 16.8 ± 1.3†^ mm/s | FS (fractional shortening) ([2]; DOCA-salt mice): 26.6 ± 2.9% | LVEDD ([2]; DOCA-salt mice): 3.67 ± 0.14 mm | LVESD ([2]; DOCA-salt mice): 2.65 ± 0.21 mm | MV A ([2]; DOCA-salt mice): 367.8 ± 48.3 mm/s | MV E ([2]; DOCA-salt mice): 555.0 ± 35.1†^ mm/s | MV E/A ratio ([2]; DOCA-salt mice): 1.71 ± 0.33 | Sm ([2]; DOCA-salt mice): 15.8 ± 1.5 | A′ (tissue Doppler) ([2]; sham mice): 21.1 ± 1.9 mm/s | E/E′ ratio ([2]; sham mice): 34.91 ± 6.81& | EF (ejection fraction) ([2]; sham mice): 51.1 ± 2.8% | E′ (tissue Doppler) ([2]; sham mice): 24.4 ± 2.2†& mm/s | E′/A′ ratio ([2]; sham mice): 1.17 ± 0.06& | FS (fractional shortening) ([2]; sham mice): 24.7 ± 1.6% | LVEDD ([2]; sham mice): 4.05 ± 0.10 mm | LVESD ([2]; sham mice): 3.01 ± 0.11 mm | MV A ([2]; sham mice): 357.5 ± 31.7 mm/s | MV E ([2]; sham mice): 738.1 ± 31.1†& mm/s | MV E/A ratio ([2]; sham mice): 2.28 ± 0.33 | Sm ([2]; sham mice): 22.9 ± 1.5 | Relaxation constant (tau) [3]: 0.73±0.01 | Resting sarcomere length [3]: 1.77±0.01 μm
